Experimental data published in article PMC4687129, “Molecular characterization of a cathepsin F-like protease in Trichinella spiralis” (Parasites & Vectors, 2015).

System: T1, TsCF1 (cathepsin F-like protease)
T1 construct: gene Tsp_02382
Experiment: fluorescence endpoint assay, Z-Phe-Arg-AMC hydrolysis at pH […] min preincubation with inhibitor
Format: biochemical, Trichinella spiralis

CC(C)C[C@H](NC(=O)[C@H]1O[C@@H]1C(=O)O)C(=O)NCCCCN=C(N)N [E-64]
IC50: 136 ± 16.9 nM
